In patent US10221197B2, “Phosphatidylinositol 3-kinase inhibitors” (Gilead Sciences, Inc., priority 2014, dated 2019):

Tests used:
Type in all cases: biochemical
[1] = molecular target: PI3Kβ (Homo sapiens (Human), UniProt P42338); assay: TR-FRET enzymatic assay of PI3K isoforms (PI3Kβ); settings: TR-FRET, 2×Km ATP, 2 μM PIP2, incubated for 30 minutes at 25° C.; read-out: β IC50
Experimental: (§1) The compounds of formula (I) were characterized for their enzymatic activity against the PI3K isoforms. Certain compounds of the present application, including certain compounds of formula (II) and (III) were also characterized for their enzymatic activity against PI3K isoforms. The activities were measured using a time-resolved fluorescence resonance energy transfer (TR-FRET) assay.

[2] = molecular target: PI3Kδ (Homo sapiens (Human), UniProt O00329); assay: TR-FRET enzymatic assay of PI3K isoforms (PI3Kδ); settings: 2×Km ATP, 2 μM PIP2, incubated for 30 minutes at 25° C., read-out: δ IC50
Experimental: as §1

[3] = molecular target: PI3Kγ (Homo sapiens (Human), UniProt P48736); assay: TR-FRET enzymatic assay of PI3K isoforms (PI3Kγ); settings: TR-FRET, 2×Km ATP, 2 μM PIP2, PI3Kγ at 2 nM, incubated for 30 minutes at 25° C.; read-out: γ IC50
Experimental: as §1

PI3Kγ, sequence (P48736 whole entry, canonical isoform): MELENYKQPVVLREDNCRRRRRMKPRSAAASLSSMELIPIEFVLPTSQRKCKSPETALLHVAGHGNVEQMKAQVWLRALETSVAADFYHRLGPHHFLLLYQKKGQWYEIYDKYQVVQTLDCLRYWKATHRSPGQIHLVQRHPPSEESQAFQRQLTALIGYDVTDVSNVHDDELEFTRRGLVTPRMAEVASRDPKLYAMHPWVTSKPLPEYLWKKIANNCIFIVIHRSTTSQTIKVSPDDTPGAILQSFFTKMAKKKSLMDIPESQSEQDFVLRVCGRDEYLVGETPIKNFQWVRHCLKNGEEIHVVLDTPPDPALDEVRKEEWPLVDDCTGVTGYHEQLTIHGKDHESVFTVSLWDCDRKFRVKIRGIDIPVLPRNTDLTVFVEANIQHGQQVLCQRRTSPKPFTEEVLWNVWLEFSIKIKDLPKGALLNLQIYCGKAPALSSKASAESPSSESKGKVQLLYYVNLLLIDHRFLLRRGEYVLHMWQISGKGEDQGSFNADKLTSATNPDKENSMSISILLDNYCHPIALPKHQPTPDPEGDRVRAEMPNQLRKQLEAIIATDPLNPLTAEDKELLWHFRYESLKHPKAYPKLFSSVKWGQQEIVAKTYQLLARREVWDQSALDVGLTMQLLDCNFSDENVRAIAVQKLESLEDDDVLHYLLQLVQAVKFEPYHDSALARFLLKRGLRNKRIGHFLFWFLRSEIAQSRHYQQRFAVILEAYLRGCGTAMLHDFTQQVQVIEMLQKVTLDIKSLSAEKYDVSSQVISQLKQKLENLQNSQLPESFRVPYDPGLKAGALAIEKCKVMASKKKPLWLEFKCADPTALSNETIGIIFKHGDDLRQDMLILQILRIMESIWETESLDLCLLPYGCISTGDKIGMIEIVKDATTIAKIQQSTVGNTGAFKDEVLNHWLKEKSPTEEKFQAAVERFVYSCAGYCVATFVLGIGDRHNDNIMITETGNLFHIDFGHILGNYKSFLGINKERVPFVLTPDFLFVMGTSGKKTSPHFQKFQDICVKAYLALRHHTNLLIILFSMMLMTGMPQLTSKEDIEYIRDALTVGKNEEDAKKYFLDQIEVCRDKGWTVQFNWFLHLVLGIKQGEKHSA
PI3Kγ, sequence (Q8WYR1 whole entry partner, canonical isoform): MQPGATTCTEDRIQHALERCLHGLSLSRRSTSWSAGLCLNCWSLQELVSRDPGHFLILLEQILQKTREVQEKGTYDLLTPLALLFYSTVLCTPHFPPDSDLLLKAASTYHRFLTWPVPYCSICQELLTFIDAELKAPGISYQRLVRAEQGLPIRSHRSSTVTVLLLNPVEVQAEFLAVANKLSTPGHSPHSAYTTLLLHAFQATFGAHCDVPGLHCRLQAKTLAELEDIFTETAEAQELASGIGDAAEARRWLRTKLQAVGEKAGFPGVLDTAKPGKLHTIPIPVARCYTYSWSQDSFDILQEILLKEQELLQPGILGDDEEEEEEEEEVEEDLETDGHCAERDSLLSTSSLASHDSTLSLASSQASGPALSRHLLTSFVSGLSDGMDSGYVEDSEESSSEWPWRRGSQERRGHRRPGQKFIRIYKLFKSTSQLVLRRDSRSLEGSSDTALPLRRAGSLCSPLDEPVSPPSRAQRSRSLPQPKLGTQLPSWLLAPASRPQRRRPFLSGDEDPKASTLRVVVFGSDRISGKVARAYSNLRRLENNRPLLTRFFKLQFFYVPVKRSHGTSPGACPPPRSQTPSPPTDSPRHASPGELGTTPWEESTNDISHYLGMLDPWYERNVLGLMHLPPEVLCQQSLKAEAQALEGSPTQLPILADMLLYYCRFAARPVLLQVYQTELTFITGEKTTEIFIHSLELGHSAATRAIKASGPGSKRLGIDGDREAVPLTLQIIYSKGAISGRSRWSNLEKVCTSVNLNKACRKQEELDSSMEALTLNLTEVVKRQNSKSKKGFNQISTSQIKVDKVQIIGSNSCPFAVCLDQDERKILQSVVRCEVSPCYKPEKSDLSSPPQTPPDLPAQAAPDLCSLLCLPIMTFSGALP
PI3Kδ, sequence (O00329 whole entry, canonical isoform): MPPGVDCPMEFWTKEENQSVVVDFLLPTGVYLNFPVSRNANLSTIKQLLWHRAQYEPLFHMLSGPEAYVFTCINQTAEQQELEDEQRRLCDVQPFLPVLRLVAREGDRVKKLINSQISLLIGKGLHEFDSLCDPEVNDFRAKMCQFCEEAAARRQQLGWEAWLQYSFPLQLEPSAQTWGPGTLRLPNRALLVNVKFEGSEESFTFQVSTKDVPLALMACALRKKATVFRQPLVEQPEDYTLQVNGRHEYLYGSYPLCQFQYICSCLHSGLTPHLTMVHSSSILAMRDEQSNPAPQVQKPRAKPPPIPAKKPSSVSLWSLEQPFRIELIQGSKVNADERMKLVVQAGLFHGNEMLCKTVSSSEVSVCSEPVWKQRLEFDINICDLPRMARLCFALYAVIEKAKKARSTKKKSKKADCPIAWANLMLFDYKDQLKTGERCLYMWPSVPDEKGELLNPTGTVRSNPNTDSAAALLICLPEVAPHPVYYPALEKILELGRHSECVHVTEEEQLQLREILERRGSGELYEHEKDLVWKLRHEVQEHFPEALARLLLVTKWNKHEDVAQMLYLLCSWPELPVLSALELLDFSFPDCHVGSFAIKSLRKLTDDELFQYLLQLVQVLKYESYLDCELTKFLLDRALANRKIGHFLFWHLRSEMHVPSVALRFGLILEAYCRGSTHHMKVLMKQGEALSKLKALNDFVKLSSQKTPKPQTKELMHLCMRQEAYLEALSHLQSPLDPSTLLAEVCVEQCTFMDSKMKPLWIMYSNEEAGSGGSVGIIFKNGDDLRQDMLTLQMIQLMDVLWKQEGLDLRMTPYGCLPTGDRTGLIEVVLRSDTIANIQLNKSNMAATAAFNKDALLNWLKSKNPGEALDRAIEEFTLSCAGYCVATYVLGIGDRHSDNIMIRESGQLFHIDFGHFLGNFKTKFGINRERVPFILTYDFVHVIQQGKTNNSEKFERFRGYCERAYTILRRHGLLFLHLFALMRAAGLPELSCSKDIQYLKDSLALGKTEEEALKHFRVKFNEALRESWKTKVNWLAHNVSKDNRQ
PI3Kδ, sequence (P27986 whole entry partner, canonical isoform): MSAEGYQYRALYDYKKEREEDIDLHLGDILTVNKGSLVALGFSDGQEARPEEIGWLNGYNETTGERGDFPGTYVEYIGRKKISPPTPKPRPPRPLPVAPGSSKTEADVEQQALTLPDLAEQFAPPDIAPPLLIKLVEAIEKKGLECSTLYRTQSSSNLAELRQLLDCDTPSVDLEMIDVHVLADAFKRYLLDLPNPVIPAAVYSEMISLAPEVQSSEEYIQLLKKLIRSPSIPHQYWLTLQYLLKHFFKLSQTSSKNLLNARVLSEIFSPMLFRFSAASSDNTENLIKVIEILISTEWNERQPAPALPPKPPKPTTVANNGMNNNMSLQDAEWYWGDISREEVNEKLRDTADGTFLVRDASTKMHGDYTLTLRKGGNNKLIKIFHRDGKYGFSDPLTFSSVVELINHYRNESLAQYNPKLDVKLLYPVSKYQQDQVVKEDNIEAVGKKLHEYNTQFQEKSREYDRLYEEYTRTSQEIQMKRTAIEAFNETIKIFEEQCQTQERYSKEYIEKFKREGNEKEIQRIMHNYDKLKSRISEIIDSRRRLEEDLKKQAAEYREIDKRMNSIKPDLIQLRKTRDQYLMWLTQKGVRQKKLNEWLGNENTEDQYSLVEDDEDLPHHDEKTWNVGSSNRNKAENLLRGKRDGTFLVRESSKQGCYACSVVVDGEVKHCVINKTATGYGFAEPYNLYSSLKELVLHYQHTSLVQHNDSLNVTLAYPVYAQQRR
PI3Kβ, sequence (P42338 whole entry, canonical isoform): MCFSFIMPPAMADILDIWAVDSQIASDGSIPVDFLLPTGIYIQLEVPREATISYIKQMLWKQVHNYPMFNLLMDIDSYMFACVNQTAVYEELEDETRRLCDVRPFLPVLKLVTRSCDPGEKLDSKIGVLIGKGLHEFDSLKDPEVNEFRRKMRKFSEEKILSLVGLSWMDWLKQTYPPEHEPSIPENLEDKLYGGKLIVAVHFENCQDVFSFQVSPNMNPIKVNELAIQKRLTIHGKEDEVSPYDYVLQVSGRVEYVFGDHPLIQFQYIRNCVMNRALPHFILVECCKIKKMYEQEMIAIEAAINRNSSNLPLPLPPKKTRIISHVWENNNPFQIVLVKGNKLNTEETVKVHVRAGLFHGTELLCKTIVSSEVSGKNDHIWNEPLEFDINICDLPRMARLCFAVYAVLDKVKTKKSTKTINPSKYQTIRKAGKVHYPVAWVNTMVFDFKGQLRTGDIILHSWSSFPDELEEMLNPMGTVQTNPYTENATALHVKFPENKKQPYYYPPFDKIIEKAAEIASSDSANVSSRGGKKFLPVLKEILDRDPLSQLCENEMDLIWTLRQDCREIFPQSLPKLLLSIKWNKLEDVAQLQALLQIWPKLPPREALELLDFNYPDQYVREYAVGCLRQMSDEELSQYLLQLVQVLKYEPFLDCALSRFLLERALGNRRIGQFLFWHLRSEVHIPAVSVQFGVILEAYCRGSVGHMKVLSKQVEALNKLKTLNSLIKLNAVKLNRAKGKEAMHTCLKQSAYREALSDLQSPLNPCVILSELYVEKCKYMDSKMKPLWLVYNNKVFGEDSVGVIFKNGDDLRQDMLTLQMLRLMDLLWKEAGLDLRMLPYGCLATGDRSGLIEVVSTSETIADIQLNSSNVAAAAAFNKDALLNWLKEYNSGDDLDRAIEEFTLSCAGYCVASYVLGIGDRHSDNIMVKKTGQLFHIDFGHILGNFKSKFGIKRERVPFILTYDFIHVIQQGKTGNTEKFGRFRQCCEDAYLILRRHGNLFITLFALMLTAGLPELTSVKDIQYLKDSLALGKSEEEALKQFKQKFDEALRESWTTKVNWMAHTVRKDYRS
PI3Kβ, sequence (P27986 whole entry partner, canonical isoform): as the sequence (P27986 whole entry partner, canonical isoform) above

With C[C@H](Nc1ncnc(N)c1C#Cc1cnccn1)c1nc2cccc(Cl)c2c(=O)n1-c1cccc(C(N)=O)c1 [Compound 37, (S)-3-(2-(1-((6-amino-5-(pyrazin-2-ylethynyl)pyrimidin-4-yl)amino)ethyl)-5-chloro-4-oxoquinazolin-3(4H)-yl)benzamide] the IC50 [1] was 243 nM, the IC50 [2] was 7 nM and the IC50 [3] was greater than 10000 nM.
